In ChEMBL document CHEMBL1201862, “PubChem BioAssay data set” (2004):
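Step 1: Grow cells in 96-well plates. Step 2: Expose to compound for 48 hours at 5 concentrations. Step 3: Interpolate endpoints linearly; if unreached, use highest concentration. GI50 is the concentration that inhibits growth by half.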 The source made the active and inactive calls. Cut-off read from the data, not from the text of the source: active = GI50 up to about 1.1 µM and inactive = higher.

Experiments:
Assay in all cases: growth of human tumour cells (NCI), 48 h
HCT-15 = tested on: HCT-15
SF-268 = tested on: SF-268
MDA-N = tested on: MDA-N
M14 = tested on: M14
OVCAR-8 = tested on: OVCAR-8
MDA-MB-435 = tested on: MDA-MB-435
BT-549 = tested on: BT-549
Malme-3M = tested on: Malme-3M
RXF 393 = tested on: RXF 393
EKVX = tested on: EKVX
T47D = tested on: T47D
NCI/ADR-RES = tested on: NCI/ADR-RES
NCI-H226 = tested on: NCI-H226
SF-539 = tested on: SF-539
UO-31 = tested on: UO-31
HOP-62 = tested on: HOP-62
SNB-19 = tested on: SNB-19
MCF7 = tested on: MCF7
DU-145 = tested on: DU-145
786-0 = tested on: 786-0

Structure (SMILES)	GI50 (HCT-15)	GI50 (SF-268)	GI50 (MDA-N)	GI50 (M14)	GI50 (OVCAR-8)	GI50 (MDA-MB-435)	GI50 (BT-549)	GI50 (Malme-3M)	GI50 (RXF 393)	GI50 (EKVX)	GI50 (T47D)	GI50 (NCI/ADR-RES)	GI50 (NCI-H226)	GI50 (SF-539)	GI50 (UO-31)	GI50 (HOP-62)	GI50 (SNB-19)	GI50 (MCF7)	GI50 (DU-145)	GI50 (786-0)
N=C(N)SCCCN	5.02 µM	5.3 µM (inactive)	3.95 µM (inactive)	3.52 µM (inactive)	3.87 µM (inactive)	3.18 µM (inactive)	4.06 µM (inactive)	8.77 µM (inactive)	4.29 µM (inactive)	35.4 µM (inactive)	32.2 µM (inactive)	5.02 µM (inactive)	18.3 µM (inactive)	5.81 µM (inactive)	17.7 µM (inactive)	12.1 µM (inactive)	20.7 µM (inactive)	5.5 µM (inactive)	20.4 µM (inactive)	4.71 µM (inactive)
O=c1oc2ccc([N+](=O)[O-])cc2c(Nc2ccc3c(c2)Sc2ccccc2O3)c1[N+](=O)[O-]	17.7 µM	27.5 µM (inactive)	28.6 µM (inactive)	19.4 µM (inactive)	25.3 µM (inactive)	30.8 µM (inactive)	24 µM (inactive)	30.7 µM (inactive)	22.4 µM (inactive)	25.9 µM (inactive)	40.7 µM (inactive)	29.5 µM (inactive)	18.8 µM (inactive)	19.8 µM (inactive)	22.6 µM (inactive)	21.3 µM (inactive)	17.9 µM (inactive)	22.1 µM (inactive)	36.7 µM (inactive)	20.3 µM (inactive)
COc1ccc(C[n+]2cccc(O)c2)cc1	> 10 µM	> 100 µM (inactive)	> 100 µM (inactive)	> 100 µM (inactive)	> 100 µM (inactive)	> 100 µM (inactive)	> 100 µM (inactive)	> 100 µM (inactive)	> 100 µM (inactive)	> 100 µM (inactive)	> 100 µM (inactive)	> 100 µM (inactive)	> 100 µM (inactive)	> 100 µM (inactive)	> 100 µM (inactive)	> 100 µM (inactive)	> 100 µM (inactive)	> 100 µM (inactive)	> 100 µM (inactive)	> 100 µM (inactive)
C=CC(=O)N1C/C(=C\c2ccc(N(C)C)cc2)C(=O)/C(=C/c2ccc(N(C)C)cc2)C1	18.2 µM	67.3 µM (inactive)	17.8 µM (inactive)	> 100 µM (inactive)	> 100 µM (inactive)	87.5 µM (inactive)	73.5 µM (inactive)	> 100 µM (inactive)	43.1 µM (inactive)	> 100 µM (inactive)	> 100 µM (inactive)	> 100 µM (inactive)	> 100 µM (inactive)	26.2 µM (inactive)	> 100 µM (inactive)	> 100 µM (inactive)	> 100 µM (inactive)	4.73 µM (inactive)	> 100 µM (inactive)	42.1 µM (inactive)
Nc1ccccc1SC(C[N+](=O)[O-])c1ccc2c(c1)OCO2 (stereo not given)	3.01 µM	7.55 µM (inactive)	1.75 µM (inactive)	1.62 µM (inactive)	2.78 µM (inactive)	2.32 µM (inactive)	4.22 µM (inactive)	15.7 µM (inactive)	1.8 µM (inactive)	3.89 µM (inactive)	4.18 µM (inactive)	20.5 µM (inactive)	11.2 µM (inactive)	2.24 µM (inactive)	1.87 µM (inactive)	2.12 µM (inactive)	12 µM (inactive)	2.99 µM (inactive)	2.62 µM (inactive)	1.66 µM (inactive)
CCOC(=O)C(NC(=O)CC(C)C)(N1CCN(c2cc3c(cc2F)c(=O)c(C(=O)O)cn3C2CC2)CC1)C(F)(F)F (stereo not given)	10 µM	11.1 µM (inactive)	20.3 µM (inactive)	20 µM (inactive)	21.1 µM (inactive)	21.9 µM (inactive)	16.3 µM (inactive)	17.6 µM (inactive)	17.2 µM (inactive)	23.4 µM (inactive)	22.9 µM (inactive)	19.7 µM (inactive)	20.7 µM (inactive)	17.5 µM (inactive)	17.9 µM (inactive)	36.6 µM (inactive)	28.8 µM (inactive)	15.6 µM (inactive)	34.4 µM (inactive)	29.5 µM (inactive)
O=C1/C(=C\c2ccccc2)C(NC2CCCCC2)c2ccccc21 (stereo not given)	2.15 µM	3.46 µM (inactive)	1.43 µM (inactive)	1.54 µM (inactive)	2.12 µM (inactive)	1.52 µM (inactive)	2.36 µM (inactive)	1.46 µM (inactive)	1.56 µM (inactive)	3.3 µM (inactive)	1.73 µM (inactive)	3.65 µM (inactive)	6.24 µM (inactive)	1 µM (active)	1.1 µM (active)	2.46 µM (inactive)	10.5 µM (inactive)	1.37 µM (inactive)	1.53 µM (inactive)	0.828 µM (active)
C=CCc1ccccc1C1CC2(C(=O)OC)OC1C(C(=O)OC)=C2C(=O)OC (stereo not given)	> 10 µM	> 10 µM (inactive)	> 10 µM (inactive)	> 10 µM (inactive)	> 10 µM (inactive)	> 10 µM (inactive)	> 10 µM (inactive)	> 10 µM (inactive)	> 10 µM (inactive)	> 10 µM (inactive)	> 10 µM (inactive)	> 10 µM (inactive)	> 10 µM (inactive)	> 10 µM (inactive)	> 10 µM (inactive)	> 10 µM (inactive)	> 10 µM (inactive)	> 10 µM (inactive)	> 10 µM (inactive)	> 10 µM (inactive)
COC(=O)c1c(O)ccc2c1c1c(n2CCc2ccccc2)C(=O)c2ccccc2C1=O	9.35 µM	12.7 µM (inactive)	10.2 µM (inactive)	15.4 µM (inactive)	8.18 µM (inactive)	7.03 µM (inactive)	15.4 µM (inactive)	12.1 µM (inactive)	13.3 µM (inactive)	20.7 µM (inactive)	5.47 µM (inactive)	6.9 µM (inactive)	14.6 µM (inactive)	16.7 µM (inactive)	10.8 µM (inactive)	21.4 µM (inactive)	17.5 µM (inactive)	9.02 µM (inactive)	14.4 µM (inactive)	16.7 µM (inactive)
N#Cc1nc(/C=C/c2nc(C#N)c(N)o2)oc1N	> 10 µM	> 10 µM (inactive)	> 10 µM (inactive)	> 10 µM (inactive)	> 10 µM (inactive)	> 10 µM (inactive)	> 10 µM (inactive)	> 10 µM (inactive)	> 10 µM (inactive)	> 10 µM (inactive)	> 10 µM (inactive)	> 10 µM (inactive)	> 10 µM (inactive)	> 10 µM (inactive)	> 10 µM (inactive)	> 10 µM (inactive)	> 10 µM (inactive)	> 10 µM (inactive)	> 10 µM (inactive)	> 10 µM (inactive)
C/C=C(/CBr)CCC(Br)C(C)(C)Cl.C/C=C(\CBr)CCC(Br)C(C)(C)Cl (stereo not given)	> 10 µM	> 10 µM (inactive)	> 10 µM (inactive)	> 10 µM (inactive)	> 10 µM (inactive)	> 10 µM (inactive)	> 10 µM (inactive)	> 10 µM (inactive)	> 10 µM (inactive)	> 10 µM (inactive)	> 10 µM (inactive)	> 10 µM (inactive)	> 10 µM (inactive)	> 10 µM (inactive)	> 10 µM (inactive)	> 10 µM (inactive)	> 10 µM (inactive)	> 10 µM (inactive)	> 10 µM (inactive)	> 10 µM (inactive)
O=C1O/C(=C(\Br)c2ccc([N+](=O)[O-])cc2)c2ccccc21	> 50.9 µM	> 74 µM (inactive)	> 66.2 µM (inactive)	> 100 µM (inactive)	> 76.6 µM (inactive)	62.7 µM (inactive)	> 79.8 µM (inactive)	> 49.9 µM (inactive)	> 100 µM (inactive)	> 100 µM (inactive)	86.5 µM (inactive)	> 100 µM (inactive)	> 100 µM (inactive)	> 100 µM (inactive)	62.8 µM (inactive)	> 80.9 µM (inactive)	> 100 µM (inactive)	48.5 µM (inactive)	> 100 µM (inactive)	> 54.6 µM (inactive)
CC1=C(C(=O)OCCc2ccc([N+](=O)[O-])cc2)C(c2ccccc2[N+](=O)[O-])C(C(=O)OC(C)C)=C(C)N1 (stereo not given)	4.21 µM	5.55 µM (inactive)	4.51 µM (inactive)	4.05 µM (inactive)	3.66 µM (inactive)	5 µM (inactive)	2.4 µM (inactive)	7.19 µM (inactive)	3.22 µM (inactive)	2.36 µM (inactive)	3.9 µM (inactive)	3.19 µM (inactive)	5.45 µM (inactive)	4.15 µM (inactive)	4.2 µM (inactive)	8.67 µM (inactive)	5.61 µM (inactive)	3.78 µM (inactive)	9.04 µM (inactive)	3.08 µM (inactive)
COC(=O)C1Cc2c(OC)ccc(OC)c2CC(C(=O)OC)C1=O (stereo not given)	> 100 µM	> 100 µM (inactive)	> 100 µM (inactive)	> 100 µM (inactive)	> 100 µM (inactive)	> 100 µM (inactive)	> 100 µM (inactive)	> 100 µM (inactive)	> 100 µM (inactive)	> 100 µM (inactive)	> 100 µM (inactive)	> 100 µM (inactive)	> 100 µM (inactive)	> 100 µM (inactive)	56 µM (inactive)	> 100 µM (inactive)	> 100 µM (inactive)	> 100 µM (inactive)	> 100 µM (inactive)	> 100 µM (inactive)
